Results published in patent US12653892B2, “Composition and method for new therapeutic agents including guanidinium-presenting dendrimers and branched structures” (priority 2020, dated 2026).
Values after ≈ are worked out from the molar mass of the structure shown. Where two headings read alike, the source gives them in different places.

What was measured:
S. aureus ATCC 29213 [1] = experiment: MIC by broth microdilution, S. aureus ATCC 29213; assay type: cell-based; settings: S. aureus (ATCC 29213), Mueller Hinton Broth, polypropylene plate; for MIC: read-out: MIC, Antibiotic Alone; for MIC, Antibiotic +NH2-triguan-6C / MIC, Antibiotic +NO2-triamine-2C / MIC, Antibiotic +NO2-triamine-6C: non-covalent mixture
Experimental: (§1) Methods—Determination of MICs: MICs for S. aureus, E. faecium, E. coli, P aeruginosa, A. baumannii, K. pneumoniae were determined using broth microdilution in accordance with CLSI methods (Wiegand, I.; Hilpert, K.; Hancock, R. E. W. Agar and Broth Dilution Methods to Determine the Minimal Inhibitory Concentration (MIC) of Antimicrobial Substances. Nat. Protoc. 2008, 3, 163-175). One day prior to each MIC experiment, bacterial strains were streaked for single colonies on TSA plates from frozen glycerol stocks stored at −80° C. Three to five colonies from each plate were harvested with a disposable inoculating loop and resuspended in 500 μL of PBS to create a bacterial suspension. Alternatively, a single colony of the appropriate bacterial strain was added to 4 mL TSB for overnight growth at 37° C. with 200 rpm shaking to create a stationary phase bacterial suspension. The suspension was diluted in PBS to an OD600 of 0.1 (˜[…] CFU/ml), and the OD 0.1 suspension was diluted 1:100 in Mueller Hinton broth (MHB, Difco 257530) just prior to inoculating the 96-well polypropylene treatment plate (Costar 3879). A 50 μL portion of inoculum was added to a treatment plate containing 2-fold serial dilutions of compound in MHB (50 μL of treatment/well) to lend a final total volume of 100 μL/well and a final inoculum density of ˜5×10^5 CFU/ml. The completed assay plate was sealed with Parafilm, placed in a lidded plastic tray lined with moistened paper towels, and incubated at 37° C. for approximately 20 hours. The MIC was read as the lowest treatment concentration where no bacterial growth occurred, as determined by OD600 measurements on a microplate reader. If a different plate or media type was used for a particular test, this is noted below the respective table.

S. aureus ATCC 29213 [2] = settings: cited from earlier work
E. coli ATCC 25922 [3] = settings: cited from earlier work
E. coli ATCC 25922 [4] = experiment: MIC by broth microdilution, E. coli ATCC 25922; assay type: cell-based; settings: E. coli (ATCC 25922)
Experimental: as §1

[5] = Staphylococcus aureus, ATCC29213, 20 h

Molecule	MIC (S. aureus ATCC 29213 [1]) [µM]	MIC, Antibiotic +NH2-triguan-6C (S. aureus ATCC 29213 [1]) [µM]	MIC, Antibiotic +NO2-triamine-2C (S. aureus ATCC 29213 [1]) [µM]	MIC, Antibiotic +NO2-triamine-6C (S. aureus ATCC 29213 [1]) [µM]	Literature MIC (S. aureus ATCC 29213 [2]) [µM]	MIC (S. aureus ATCC 29213 [1]; [5]) [µM]	Literature MIC (E. coli ATCC 25922 [3]) [µM]	MIC, Antibiotic Alone (E. coli ATCC 25922 [4]) [µM]	MIC, Antibiotic +NH2-triguan-6C (E. coli ATCC 25922 [4]; non-covalent mixture) [µM]	MIC, Antibiotic +NO2-triamine-2C (E. coli ATCC 25922 [4]; non-covalent mixture) [µM]	MIC, Antibiotic +NO2-triamine-6C (E. coli ATCC 25922 [4]; non-covalent mixture) [µM]
CC1(C)S[C@@H]2[C@H](NC(=O)Cc3ccccc3)C(=O)N2[C@H]1C(=O)O [Penicillin G]	2 (≈ 0.669 µg/mL)	2 (≈ 0.669 µg/mL)	4 (≈ 1.34 µg/mL)	4 (≈ 1.34 µg/mL)	0.084 to 5.6	–	–	–	–	–	–
CC[C@H]1OC(=O)[C@H](C)[C@@H](O[C@H]2C[C@@](C)(OC)[C@@H](O)[C@H](C)O2)[C@H](C)[C@@H](O[C@@H]2O[C@H](C)C[C@H](N(C)C)[C@H]2O)[C@](C)(O)C[C@@H](C)CN(C)[C@H](C)[C@@H](O)[C@]1(C)O [Azithromycin]	–	2 (≈ 1.5 µg/mL)	2 (≈ 1.5 µg/mL)	2 (≈ 1.5 µg/mL)	0.64 to 2.5	2 (≈ 1.5 µg/mL)	–	–	–	–	–
O=C1CN(/N=C/c2ccc([N+](=O)[O-])o2)C(=O)N1 [Nitrofurantoin]	–	128 (≈ 30.5 µg/mL)	256 (≈ 61 µg/mL)	256 (≈ 61 µg/mL)	–	128 (≈ 30.5 µg/mL)	–	–	–	–	–
O=C(N[C@H](CO)[C@H](O)c1ccc([N+](=O)[O-])cc1)C(Cl)Cl [Chloramphenicol]	–	32 (≈ 10.3 µg/mL)	32 (≈ 10.3 µg/mL)	32 (≈ 10.3 µg/mL)	6 to 50	32 (≈ 10.3 µg/mL)	6 to 25	16 (≈ 5.17 µg/mL)	16 (≈ 5.17 µg/mL)	16 (≈ 5.17 µg/mL)	16 (≈ 5.17 µg/mL)
C[C@@H](O)[C@H]1C(=O)N2C(C(=O)O)=C(S[C@@H]3CN[C@H](C(=O)N(C)C)C3)[C@H](C)[C@H]12 [Meropenem]	–	0.125 (≈ 0.0479 µg/mL)	0.125 (≈ 0.0479 µg/mL)	0.125 (≈ 0.0479 µg/mL)	0.08 to 0.65	0.125 (≈ 0.0479 µg/mL)	–	–	–	–	–
Gentamicin	0.5	0.5	0.5	1	0.26 to 2.1	–	–	–	–	–	–
